Earlier results on one sequence are cited in US11618772B2 (Kineta Chronic Pain, LLC, priority 2014, dated 2023).

This data set deals with T1, α9α10 nAChR (Rattus norvegicus, UniProt P43144+Q9JLB5).
T1 construct: host or cells: oocytes
As to conditions: cited from earlier work.

T1 sequence (P43144 26-479 limits assumed): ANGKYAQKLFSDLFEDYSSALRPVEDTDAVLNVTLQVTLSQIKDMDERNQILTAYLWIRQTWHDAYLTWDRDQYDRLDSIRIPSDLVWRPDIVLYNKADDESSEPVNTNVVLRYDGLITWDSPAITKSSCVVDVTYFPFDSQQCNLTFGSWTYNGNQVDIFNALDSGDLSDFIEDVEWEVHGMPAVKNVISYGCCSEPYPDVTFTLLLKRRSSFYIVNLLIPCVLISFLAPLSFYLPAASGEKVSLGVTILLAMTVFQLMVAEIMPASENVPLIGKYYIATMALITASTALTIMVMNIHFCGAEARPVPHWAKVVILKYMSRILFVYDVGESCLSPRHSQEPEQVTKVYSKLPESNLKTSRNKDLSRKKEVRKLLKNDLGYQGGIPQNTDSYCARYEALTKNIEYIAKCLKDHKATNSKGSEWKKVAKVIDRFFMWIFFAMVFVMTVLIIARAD
T1 sequence (Q9JLB5 25-447 limits assumed): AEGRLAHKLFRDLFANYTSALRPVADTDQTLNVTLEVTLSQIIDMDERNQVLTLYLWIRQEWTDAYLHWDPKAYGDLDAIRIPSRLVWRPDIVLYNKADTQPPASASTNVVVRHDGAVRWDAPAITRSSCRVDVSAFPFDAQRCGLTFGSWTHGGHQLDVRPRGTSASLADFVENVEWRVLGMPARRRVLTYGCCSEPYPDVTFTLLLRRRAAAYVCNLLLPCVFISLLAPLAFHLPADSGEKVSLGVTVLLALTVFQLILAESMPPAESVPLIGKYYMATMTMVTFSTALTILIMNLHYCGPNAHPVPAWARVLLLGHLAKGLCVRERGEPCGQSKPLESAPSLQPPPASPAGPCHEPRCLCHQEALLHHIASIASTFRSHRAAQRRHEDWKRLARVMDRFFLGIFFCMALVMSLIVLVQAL

With GCCSDPRCRYRCR [RgIA], the “block of α9α10 nAChR” value is listed as “block α9α10 nAChR”.
